Columns and labels:
Assay type in all cases: in vivo
[1] = test system: Amaranthus retroflexus (AMARE); experiment: Herbicidal post-emergence action, 320 g/ha, AMARE; settings: visual grading after ca. 3 weeks
Text: (§1) Seeds of mono- and dicotyledonous weed plants were sown in plastic pots (double sowings with one species of mono- and one species of dicotyledonous weed plants per pot), in sandy loam, covered with soil and grown under controlled growth conditions. 2 to 3 weeks after sowing, the test plants were sprayed in the single-leaf stage. The compounds according to the invention, formulated in the form of wettable powders (WP) or as emulsifiable concentrates (EC), were sprayed onto the green plant parts as an aqueous suspension or as an emulsion, with the addition of 0.5% of an additive, at an application rate of 600 litres of water per hectare (converted). The test plants were placed in the greenhouse for ca. 3 weeks under optimum growth conditions, and then the effect of the preparations was assessed visually in comparison with untreated controls (herbicidal effect in percent (%): 100% effect=plants have died, 0% effect=as control plants).
(§2) Tables D1 to D8 below, show the effects of selected compounds of the general formula (I) according to Table 1 on various harmful plants using an application rate corresponding to 320 g/ha obtained by the experimental procedure mentioned above.

Poa annua (POAAN) = experiment: Herbicidal pre-emergence action, 1280 g/ha (Table A7); settings: visual grading after ca. 3 weeks vs untreated controls
Text: (§3) Seeds of mono- and dicotyledonous weed plants were sown in plastic pots (double sowings with one species of mono- and one species of dicotyledonous weed plants per pot), in sandy loam, and covered with soil. The compounds according to the invention, formulated in the form of wettable powders (WP) or as emulsifiable concentrates (EC), were applied to the surface of the covering soil as an aqueous suspension or as an emulsion, with the addition of 0.5% of an additive, at an application rate of 600 litres of water per hectare (converted). Following treatment, the pots were placed in a greenhouse and kept under optimum growth conditions for the test plants. The visual grading of the damage to the test plants was carried out after ca. 3 weeks in comparison to untreated controls (herbicidal effect in percent (%): 100% effect=plants have died, 0% effect=as control plants). Tables A1 to A11 below, show the effects of selected compounds of the general formula (I) according to Table 1 on various harmful plants and an application rate corresponding to 1280 g/ha obtained by the experimental procedure mentioned above.

Stellaria media (STEME) [2] = experiment: Herbicidal pre-emergence action, 1280 g/ha (Table A9); settings: visual grading after ca. 3 weeks vs untreated controls
Text: as §3

Kochia scoparia (KCHSC) [3] = experiment: Herbicidal post-emergence action, 1280 g/ha (Table B4); settings: visual assessment after ca. 3 weeks vs untreated controls
Text: as §1, with “plants). Tables B1 to B11 below, show the effects of selected compounds of the general formula (I) according to Table 1 on various harmful plants using an application rate corresponding to 1280 g/ha obtained by the experimental procedure mentioned above.” for “plants).”

[4] = test system: Matricaria inodora (MATIN); experiment: Herbicidal post-emergence action, 1280 g/ha (Table B6); settings: visual assessment after ca. 3 weeks vs untreated controls
Text: as §1, with “plants). Tables B1 to B11 below, show the effects of selected compounds of the general formula (I) according to Table 1 on various harmful plants using an application rate corresponding to 1280 g/ha obtained by the experimental procedure mentioned above.” for “plants).”

Veronica persica (VERPE) [5] = experiment: Herbicidal post-emergence action, 1280 g/ha, VERPE; settings: visual grading vs untreated controls
Text: as §1
(§4) Tables B1 to B11 below, show the effects of selected compounds of the general formula (I) according to Table 1 on various harmful plants using an application rate corresponding to 1280 g/ha obtained by the experimental procedure mentioned above.

Lolium rigidum (LOLRI) [6] = experiment: Herbicidal pre-emergence action, 1280 g/ha (Table A5); settings: visual grading after ca. 3 weeks vs untreated controls
Text: as §3

Lolium rigidum (LOLRI) [7] = experiment: Herbicidal post-emergence action, 1280 g/ha (Table B5); settings: visual assessment after ca. 3 weeks vs untreated controls
Text: as §1, with “plants). Tables B1 to B11 below, show the effects of selected compounds of the general formula (I) according to Table 1 on various harmful plants using an application rate corresponding to 1280 g/ha obtained by the experimental procedure mentioned above.” for “plants).”

[8] = test system: Amaranthus retroflexus (AMARE); experiment: Herbicidal post-emergence action, 1280 g/ha, AMARE; settings: visual grading vs untreated controls
Text: as §1, §4

Stellaria media (STEME) [9] = experiment: Herbicidal post-emergence action, 1280 g/ha (Table B9); settings: visual assessment after ca. 3 weeks vs untreated controls
Text: as §1, with “plants). Tables B1 to B11 below, show the effects of selected compounds of the general formula (I) according to Table 1 on various harmful plants using an application rate corresponding to 1280 g/ha obtained by the experimental procedure mentioned above.” for “plants).”

[10] = test system: Abutilon theophrasti (ABUTH); experiment: Herbicidal post-emergence action, 1280 g/ha (Table B1); settings: visual assessment after ca. 3 weeks vs untreated controls
Text: as §1, with “plants). Tables B1 to B11 below, show the effects of selected compounds of the general formula (I) according to Table 1 on various harmful plants using an application rate corresponding to 1280 g/ha obtained by the experimental procedure mentioned above.” for “plants).”

[11] = test system: Abutilon theophrasti (ABUTH); experiment: Herbicidal post-emergence action, 320 g/ha, ABUTH; settings: visual grading after ca. 3 weeks
Text: as §1, §2

Veronica persica (VERPE) [12] = experiment: Herbicidal post-emergence action, 320 g/ha, VERPE; settings: visual grading after ca. 3 weeks
Text: as §1, §2

Kochia scoparia (KCHSC) [13] = experiment: Herbicidal post-emergence action, 320 g/ha, KCHSC; settings: visual grading after ca. 3 weeks
Text: as §1, §2

Kochia scoparia (KCHSC) [14] = experiment: Herbicidal pre-emergence action, 1280 g/ha (Table A4); settings: visual grading after ca. 3 weeks vs untreated controls
Text: as §3

[15] = test system: Abutilon theophrasti (ABUTH); experiment: Herbicidal pre-emergence action, 1280 g/ha (Table A1); settings: visual grading after ca. 3 weeks vs untreated controls
Text: as §3

Stellaria media (STEME) [16] = experiment: Herbicidal pre-emergence action, 320 g/ha, STEME; settings: visual grading after ca. 3 weeks
Text: as §3, with “plants).” for “plants). Tables A1 to A11 below, show the effects of selected compounds of the general formula (I) according to Table 1 on various harmful plants and an application rate corresponding to 1280 g/ha obtained by the experimental procedure mentioned above.”
Tables C1 to C6 below, show the effects of selected compounds of the general formula (I) according to Table 1 on various harmful plants using an application rate corresponding to 320 g/ha obtained by the experimental procedure mentioned above.

[17] = test system: Matricaria inodora (MATIN); experiment: Herbicidal pre-emergence action, 1280 g/ha (Table A6); settings: visual grading after ca. 3 weeks vs untreated controls
Text: as §3

Stellaria media (STEME) [18] = experiment: Herbicidal post-emergence action, 320 g/ha, STEME; settings: visual grading after ca. 3 weeks
Text: as §1, §2

[19] = test system: Matricaria inodora (MATIN); experiment: Herbicidal post-emergence action, 320 g/ha, MATIN; settings: visual grading after ca. 3 weeks
Text: as §1, §2

[20] = test system: Amaranthus retroflexus (AMARE); experiment: Herbicidal pre-emergence action, 1280 g/ha (Table A11); settings: visual grading after ca. 3 weeks vs untreated controls
Text: as §3

Lolium rigidum (LOLRI) [21] = experiment: Herbicidal pre-emergence action, 320 g/ha (Table C2); settings: visual grading after ca. 3 weeks vs untreated controls
Text: as §3, with “Tables C1” for “Tables A1”, “to C6” for “to A11”, “plants using” for “plants and”, “to 320” for “to 1280”

| SMILES | herbicidal effect AMARE [1] [%] | herbicidal effect STEME (Stellaria media (STEME) [2]) [%] | herbicidal effect KCHSC (Kochia scoparia (KCHSC) [3]) [%] | herbicidal effect MATIN [4] [%] | herbicidal effect VERPE (Veronica persica (VERPE) [5]) [%] | herbicidal effect LOLRI (Lolium rigidum (LOLRI) [6]) [%] | herbicidal effect AMARE [8] [%] | herbicidal effect STEME (Stellaria media (STEME) [9]) [%] | herbicidal effect ABUTH [10] [%] | herbicidal effect KCHSC (Kochia scoparia (KCHSC) [13]) [%] | herbicidal effect MATIN [17] [%] | herbicidal effect STEME (Stellaria media (STEME) [18]) [%] | herbicidal effect AMARE [20] [%] | also measured |
| --- | --- | --- | --- | --- | --- | --- | --- | --- | --- | --- | --- | --- | --- | --- |
| Cc1nn(C)c(=O)c(Oc2ccccc2C(F)(F)F)c1O [Example I-007, 5-hydroxy-2,6-dimethyl-4-[2-(trifluoromethyl)phenoxy]pyridazin-3-one] | 90 | 100 | 100 | 90 | 90 | 90 | 90 | 100 | – | – | – | – | – | herbicidal effect POAAN (Poa annua (POAAN)): 100%; herbicidal effect LOLRI (Lolium rigidum (LOLRI) [7]): 90% |
| Cc1ccccc1Oc1c(O)c(C)nn(C)c1=O [Example I-017] | 90 | – | 100 | – | 90 | – | 90 | – | 90 | – | – | – | – | herbicidal effect ABUTH [11]: 90%; herbicidal effect VERPE (Veronica persica (VERPE) [12]): 90% |
| Cc1nn(C)c(=O)c(Oc2ccc(Cl)cc2Cl)c1O [Example I-019, 4-(2,4-dichlorophenoxy)-5-hydroxy-2,6-dimethyl-pyridazin-3-one] | 90 | 100 | 90 | 90 | 90 | 90 | 90 | 90 | 90 | 90 | – | – | – | herbicidal effect ABUTH [11]: 90% |
| Cc1nn(C)c(=O)c(Oc2ccccc2F)c1O [Example I-021] | – | – | – | – | – | – | – | – | – | – | – | – | – | herbicidal effect POAAN (Poa annua (POAAN)): 90% |
| Cc1nn(C)c(=O)c(Oc2ccc(Cl)cc2Cl)c1OC(=O)C(C)(C)C [Example I-049] | – | 100 | 90 | 90 | 90 | – | 100 | – | 90 | 90 | – | – | – | herbicidal effect KCHSC (Kochia scoparia (KCHSC) [14]): 90% |
| CCOC(=O)Oc1c(C)nn(C)c(=O)c1Oc1cc(Cl)ccc1C1CC1 [Example I-070] | 90 | 90 | – | 90 | 90 | 100 | 100 | 100 | 100 | – | 100 | 90 | – | herbicidal effect ABUTH [11]: 100%; herbicidal effect ABUTH [15]: 100%; herbicidal effect STEME (Stellaria media (STEME) [16]): 90%; herbicidal effect LOLRI (Lolium rigidum (LOLRI) [7]): 100% |
| CCOC(=O)Oc1c(C)nn(C)c(=O)c1Oc1ccccc1OC(F)F [Example I-074] | – | 90 | 90 | 90 | 90 | 90 | 100 | 100 | 100 | 90 | – | – | – | herbicidal effect LOLRI (Lolium rigidum (LOLRI) [7]): 90% |
| Cc1nn(C)c(=O)c(Oc2cc(F)c(F)cc2Br)c1O [Example I-087] | 90 | – | 100 | 100 | 90 | 90 | 100 | – | 100 | 90 | – | – | – | herbicidal effect MATIN [19]: 90%; herbicidal effect VERPE (Veronica persica (VERPE) [12]): 90% |
| Cc1nn(C)c(=O)c(Oc2cc(F)c(F)cc2Br)c1OC(=O)C(C)C [Example I-094] | – | – | 90 | 90 | 90 | – | 100 | – | 90 | – | 100 | – | 100 | herbicidal effect MATIN [19]: 90% |
| Cc1nn(C)c(=O)c(Oc2cc(Cl)cc(Cl)c2Cl)c1O [Example I-096] | – | 100 | – | – | – | 90 | 90 | 100 | – | – | 100 | 90 | 90 | herbicidal effect LOLRI (Lolium rigidum (LOLRI) [21]): 90%; herbicidal effect STEME (Stellaria media (STEME) [16]): 100% |
| CCOC(=O)Oc1c(C)nn(C)c(=O)c1Oc1cc(Cl)cc(Cl)c1Cl [Example I-097] | – | 100 | – | – | – | 100 | 90 | 90 | – | – | – | 90 | 100 | herbicidal effect ABUTH [15]: 100%; herbicidal effect STEME (Stellaria media (STEME) [16]): 90% |
| CCOC(=O)Oc1c(C)nn(C)c(=O)c1Oc1cc(F)cc(F)c1Br [Example I-098] | – | 100 | 90 | 90 | 90 | – | 100 | 90 | 90 | 90 | 100 | 90 | 100 | – |

— patent US20240239755A1, “SUBSTITUTED PYRIDAZINONES, SALTS OR N-OXIDES THEREOF AND THEIR USE AS HERBICIDALLY ACTIVE SUBSTANCES” (Bayer Aktiengesellschaft, priority 2021, published 2024)
